Source: patent US20080058318A1 (priority 2006, published 2008)
Several values for one entry are separate records, joined by “and”; a condition that tells them apart may be missing. Identical values can stand only once. Counter-ions that a name gives are not always drawn.

How the values were obtained:
patients with FMS = conditions: open-label, cited from earlier work
[1] = system: patients who met the 1990 ACR criteria for fibromyalgia syndrome; test: Example 1 study: composite responder analysis for pain of fibromyalgia (pain reduction plus PGIC); assay type: in vivo, human; conditions: for Responders for the treatment of the pain of fibromyalgia, % = m/n: observed cases (OC), hydrochloride; for Responders for the treatment of the pain of fibromyalgia, m (number of responders): observed cases
Experimental: (§1) This was a multi-center, randomized, double-blinded, placebo-controlled three-arm study, which enrolled 888 patients who met the 1990 ACR criteria for fibromyalgia syndrome as well as the more detailed admission criteria outlined in the protocol.
(§2) All randomized medications (placebo and milnacipran) were administered in a split-dose (BID) fashion. The doses were administered in a dose escalation regimen as outlined below:
The primary endpoint of this study was a composite responder analysis implementing analysis of three domains of interest, evaluated at […]. The domains measured were:
1) pain (measured by an electronic diary as a daily recall pain score, calculated to weekly average scores)
2) patient global (measured by the PGIC, 1-7 scale)
For the primary analysis, the pain domain score was determined by a calculation that compared the average of treatment weeks 14 and 15 to the two baseline weeks, and treatment weeks 26 and 27 vs. baseline for the secondary analysis. The last observation was carried forward if neither the week 14 nor week 15 (or week 26/27) patient self-reported pain score is available to compare to the baseline value.
A responder was defined as a subject who experienced a greater than 30% reduction in pain from baseline and improvement on the PGIC.
See Table 1 for a summary of the results in the Intent-to-Treat Population and Table 2 for a summary of the Last Observation Carried Forward (LOCF), Baseline Observation Carried Forward (BOCF) and study completer (OC) populations. LOCF is an analysis in which observations are carried forward to the last time point for patients who dropped out. The LOCF analysis treats the carried-forward data as observed data at the last time point. BOCF is an analysis that requires that the patient remain active in the trial to be evaluated for response. If a patient withdraws from the trial for any reason they are classed as a non-responder irregardless of their pain and global scores at the time of withdrawal.

[2] = system: patients who met the 1990 ACR criteria for fibromyalgia syndrome; test: Example 1 study: MASQ total score (cognitive function), change from baseline; assay type: in vivo, human; set-up: MASQ Total Score - Change from Baseline: scale not given here
Experimental: as §1, §2
d. FMS Status Assessments: Patient pain 24 hour and 7 day recall VAS, the SF-36, Multiple Ability Self-report Questionnaire (MAS Q, cognitive function), the Multidimensional Health Assessment Questionnaire (MDHAQ) and the Multidimensional Fatigue Inventory (MFI). Diary assessments include current pain (morning, random daily, and evening reports); daily recall pain (morning report); medications taken (evening report); overall pain past week (weekly report), overall fatigue in the last week (weekly report), and the extent that pain kept the patient from caring for themselves (weekly report).
The MASQ is a brief self-report questionnaire, which includes 5 cognitive domains: language ability, visuo-perceptual ability, verbal memory, visual memory, and attention/concentration (Seidenberg et al., J Clin & Exp Neuropsychology 1994; 16:93-104). The MASQ has been validated in both normal subjects and patient groups having cognitive difficulties in the assessment domains.

[3] = system: patients who meet the 1990 ACR criteria for fibromyalgia syndrome; test: Example 2 study: MASQ total score, 3-month treatment period; assay type: in vivo, human; set-up: MASQ total score, Actual, Mean / MASQ total score, Change from baseline, Mean / MASQ total score, Actual, Median / MASQ total score, Change from baseline, Median: scale not given here; conditions: for MASQ total score change, Difference from Placebo / MASQ total score, Change from baseline, LS Mean (SE): 3-month (LOCF), ITT, ANCOVA model; for MASQ total score, Actual, Mean / MASQ total score, Actual, Median / MASQ total score, Change from baseline, Mean / MASQ total score, Change from baseline, Median: 3-month treatment period (LOCF), intent-to-treat
Experimental: This was a multicenter, randomized, double-blind, placebo-controlled three-arm study designed which enrolled 1196 patients who meet the 1990 ACR criteria for fibromyalgia syndrome (history of widespread pain and pain in 11 of 18 tender point sites on digital palpation), as well as the more detailed admission criteria outlined in the protocol.
All randomized medications (placebo and milnacipran) were administered twice a day (BID).
(iii) Additional Efficacy Measurements: The Fibromyalgia Impact Questionnaire (FIQ) total score and physical function, Beck Depression Inventory (BDI), the MOS-Sleep Index Scale, the Arizona Sexual Experiences Scale (ASEX), Patient pain 24 hour and 7 day recall VAS, the SF-36 individual domains, Patient Global Disease Status, Patient Global Therapeutic Benefit, the Multiple Ability Self-report Questionnaire (MASQ, cognitive function), the Multidimensional Health Assessment Questionnaire (MDHAQ), Multidimensional Fatigue Inventory (MFI), and diary assessments including current pain (morning, random daily, and evening reports); overall pain past week (weekly report), overall fatigue in the last week (weekly report), and the extent that pain kept the patient from caring for themselves (weekly report).

fibromyalgia patients [4] = conditions: cited from earlier work
fibromyalgia patients [5] = conditions: cited from earlier work; remark: listed apart in the source
[6] = system: subjects suffering from fibromyalgia syndrome; conditions: cited from earlier work; for Subjects with significant clinical improvement: after one month; for Difference between treatment group and placebo: at three months

COc1ccc(C(CN(C)C)C2(O)CCCCC2)cc1 (stereo not shown) [venlafaxine]
Completing patients with insomnia requiring adjunctive medical therapy (patients with FMS; 11 completing patients): 3 of 11
Completing patients with a positive response (50% or greater improvement in two measurements of overall pain) (patients with FMS; 15 patients, 11 completing): Six of 11

CCN(CC)C(=O)C1(c2ccccc2)CC1CN (racemic) [milnacipran, Z-2-aminomethyl-1-phenyl-N,N-diethylcyclopropanecarboxamide hydrochloride]
Responders for the treatment of the pain of fibromyalgia, % = m/n ([1]; 100 mg/day BID, treatment weeks 14-15 (3 month)): 53.33% and 53.3%
Responders for the treatment of the pain of fibromyalgia, % = m/n ([1]; 100 mg/day BID, treatment weeks 14-15 (3 month), listed as Milnacipran): 53.33%
Responders for the treatment of the pain of fibromyalgia, % = m/n ([1]; 100 mg/day BID, treatment weeks 26-27 (6 month)): 49.59% and 49.6%
Responders for the treatment of the pain of fibromyalgia, % = m/n ([1]; 100 mg/day BID, treatment weeks 26-27 (6 month), listed as Milnacipran): 49.59%
Long-term treatment of fibromyalgia and some of its symptoms, low dose compared with high dose ([1]; 100 mg/day vs 200 mg/day, continued administration): almost as effective as continued administration of high-dose milnacipran
Responders for the treatment of the pain of fibromyalgia, m (number of responders) ([1]; 100 mg/day, treatment weeks 14-15, n = 135): 72
Responders for the treatment of the pain of fibromyalgia, m (number of responders) ([1]; 100 mg/day, treatment weeks 26-27, n = 121): 60
Individual component responder rate, PGIC (LOCF) ([1]; 100 mg, 3 month): 54.0%
Individual component responder rate, Pain (LOCF) ([1]; 100 mg, 3 month): 35.7%
Pain composite responder rate, Sensitivity Analysis I (BOCF) ([1]; 100 mg, 3 month): 32.1%
Pain composite responder rate, Sensitivity Analysis II ([1]; 100 mg, 3 month): 32.%
Pain composite responder rate, Sensitivity Analysis III ([1]; 100 mg, 3 month): 32.1%
Pain composite responder rate, Primary Analysis (LOCF) ([1]; 100 mg, 3 month, N = 224): 33.5%
Individual component responder rate, PGIC (LOCF) ([1]; 100 mg, 6 month): 49.6%
Individual component responder rate, Pain (LOCF) ([1]; 100 mg, 6 month): 35.7%
Pain composite responder rate, Sensitivity Analysis I (BOCF) ([1]; 100 mg, 6 month): 26.8%
Pain composite responder rate, Sensitivity Analysis II ([1]; 100 mg, 6 month): 27.2%
Pain composite responder rate, Sensitivity Analysis III ([1]; 100 mg, 6 month): 29.5%
Pain composite responder rate, Primary Analysis (LOCF) ([1]; 100 mg, 6 month, N = 224): 30.8%
Responders for the treatment of the pain of fibromyalgia, % = m/n ([1]; 200 mg/day BID, treatment weeks 14-15 (3 month)): 55.0%
Responders for the treatment of the pain of fibromyalgia, % = m/n ([1]; 200 mg/day BID, treatment weeks 14-15 (3 month), listed as Milnacipran): 55.00%
Responders for the treatment of the pain of fibromyalgia, % = m/n ([1]; 200 mg/day BID, treatment weeks 26-27 (6 month)): 51.74% and 51.7%
Responders for the treatment of the pain of fibromyalgia, % = m/n ([1]; 200 mg/day BID, treatment weeks 26-27 (6 month), listed as Milnacipran): 51.74%
Responders for the treatment of the pain of fibromyalgia, m (number of responders) ([1]; 200 mg/day, treatment weeks 14-15, n = 260): 143
Responders for the treatment of the pain of fibromyalgia, m (number of responders) ([1]; 200 mg/day, treatment weeks 26-27, n = 230): 119
Individual component responder rate, PGIC (LOCF) ([1]; 200 mg, 3 month): 50.6%
Individual component responder rate, Pain (LOCF) ([1]; 200 mg, 3 month): 38.3%
Pain composite responder rate, Sensitivity Analysis I (BOCF) ([1]; 200 mg, 3 month): 32.4%
Pain composite responder rate, Sensitivity Analysis II ([1]; 200 mg, 3 month): 32.7%
Pain composite responder rate, Sensitivity Analysis III ([1]; 200 mg, 3 month): 32.4%
Pain composite responder rate, Primary Analysis (LOCF) ([1]; 200 mg, 3 month, N = 441): 34.9%
Individual component responder rate, PGIC (LOCF) ([1]; 200 mg, 6 month): 49.9%
Individual component responder rate, Pain (LOCF) ([1]; 200 mg, 6 month): 35.4%
Pain composite responder rate, Sensitivity Analysis I (BOCF) ([1]; 200 mg, 6 month): 27.0%
Pain composite responder rate, Sensitivity Analysis II ([1]; 200 mg, 6 month): 28.6%
Pain composite responder rate, Sensitivity Analysis III ([1]; 200 mg, 6 month): 29.9%
Pain composite responder rate, Primary Analysis (LOCF) ([1]; 200 mg, 6 month, N = 441): 32.2%
Treatment of cognitive dysfunction associated with FMS (change in MASQ total score), comparison with placebo ([2]; 100 mg/day vs placebo): superior to placebo
MASQ Total Score - Change from Baseline ([2]; 100 mg, treatment week 3): −0.39
MASQ Total Score - Change from Baseline ([2]; 100 mg, treatment week 7): −0.34
MASQ Total Score - Change from Baseline ([2]; 100 mg, treatment week 11): −1.33
MASQ Total Score - Change from Baseline ([2]; 100 mg, treatment week 15): −1.18
MASQ Total Score - Change from Baseline ([2]; 100 mg, treatment week 19): −1.60
MASQ Total Score - Change from Baseline ([2]; 100 mg, treatment week 23): −0.89
MASQ Total Score - Change from Baseline ([2]; 100 mg, treatment week 27): −1.07
Treatment of cognitive dysfunction associated with FMS (change in MASQ total score), 200 mg/day compared with 100 mg/day ([2]; 200 mg/day vs 100 mg/day): superior to milnacipran 100 mg/day
Treatment of cognitive dysfunction associated with FMS (change in MASQ total score), comparison with placebo ([2]; 200 mg/day vs placebo): superior to placebo
MASQ Total Score - Change from Baseline ([2]; 200 mg, treatment week 3): −1.60
MASQ Total Score - Change from Baseline ([2]; 200 mg, treatment week 7): −1.77
MASQ Total Score - Change from Baseline ([2]; 200 mg, treatment week 11): −1.73
MASQ Total Score - Change from Baseline ([2]; 200 mg, treatment week 15): −1.76
MASQ Total Score - Change from Baseline ([2]; 200 mg, treatment week 19): −1.63
MASQ Total Score - Change from Baseline ([2]; 200 mg, treatment week 23): −1.52
MASQ Total Score - Change from Baseline ([2]; 200 mg, treatment week 27): −1.89
MASQ total score change, Difference from Placebo ([3]; 100 mg): −1.13
MASQ total score, Change from baseline, LS Mean (SE) ([3]; 100 mg): −3.93 (0.786)
MASQ total score, Actual, Mean ([3]; 100 mg): 88.86
MASQ total score, Actual, Median ([3]; 100 mg): 89.0
MASQ total score, Change from baseline, Mean ([3]; 100 mg): −3.34
MASQ total score, Change from baseline, Median ([3]; 100 mg): −3.0
MASQ total score change, Difference from Placebo ([3]; 200 mg): −1.12
MASQ total score, Change from baseline, LS Mean (SE) ([3]; 200 mg): −4.51 (0.797)
MASQ total score, Actual, Mean ([3]; 200 mg): 89.63
MASQ total score, Actual, Median ([3]; 200 mg): 90.5
MASQ total score, Change from baseline, Mean ([3]; 200 mg): −3.75
MASQ total score, Change from baseline, Median ([3]; 200 mg): −3.0
Acute (short-term) therapy for the symptom of pain in FMS (fibromyalgia patients [4]; 100 mg BID): effective acute (short-term) therapy
Effect on fatigue, mood, global wellness, and function, BID compared with QD dosing (fibromyalgia patients [4]; BID vs QD, up to 200 mg/day): approximately equally effective
Treating pain, twice-daily dosing compared with QD dosing (fibromyalgia patients [4]; BID vs QD, up to 200 mg/day): more effective in treating pain than QD dosing
PGIC: completers who reported an improvement in their overall status (fibromyalgia patients [4]; both milnacipran treatment groups (BID and QD), up to 200 mg/day): over 70%
PGIC: completers who reported worsening (fibromyalgia patients [4]; milnacipran treatment groups, up to 200 mg/day): 10%
Deaths or serious adverse events associated with treatment (fibromyalgia patients [5]; Phase II study): no deaths or serious adverse events
Patients with adverse events from elevation in hepatic enzymes (fibromyalgia patients [5]; milnacipran-treated patients): 2%

CN(C)CCC=C1c2ccccc2CCc2ccccc21 [amitriptyline]
Subjects with significant clinical improvement [6]: 21%
Difference between treatment group and placebo [6]: no difference

CN(C)CCC=C1c2ccccc2C=Cc2ccccc21 [cyclobenzaprine]
Subjects with significant clinical improvement [6]: 12%
Difference between treatment group and placebo [6]: no difference
